Active and inactive are the calls of the source. The rule behind the calls is not given here.
Tests used:
NCI-H358 = assay: Antiproliferative activity against human NCI-H358 cells expressing vimentin assessed as inhibition of cell growth incubated for 3 days by MTS assay; assay type: functional, cell-based; details: NCI-H358, 72 h
NCI-H1299 [1] = assay: Induction of apoptosis in human NCI-H1299 cells assessed as necrotic cells at 20 uM incubated for 12 hrs by annexin V/PI staining based flow cytometry analysis (reference value: 2.62%); assay type: functional
NCI-H460 [2] = assay: Induction of apoptosis in human NCI-H460 cells assessed as late apoptotic cells at 10 uM incubated for 12 hrs by annexin V/PI staining based flow cytometry analysis (reference value: 6.19%); assay type: functional
NCI-H2009 = assay: Antiproliferative activity against human NCI-H2009 cells expressing vimentin assessed as inhibition of cell growth incubated for 3 days by MTS assay; assay type: functional, cell-based; details: NCI-H2009, 72 h
NCI-H460 [3] = assay: Induction of apoptosis in human NCI-H460 cells assessed as viable cells at 10 uM incubated for 12 hrs by annexin V/PI staining based flow cytometry analysis (reference value: 90.9%); assay type: functional; details: read-out: Activity
HBEC3-KT = assay: Antiproliferative activity against human HBEC3-KT cells assessed as inhibition of cell growth incubated for 3 days by MTS assay; assay type: toxicity, cell-based; details: 72 h, time 3 day
NCI-H460 [4] = assay: Induction of apoptosis in human NCI-H460 cells assessed as late apoptotic cells at 20 uM incubated for 12 hrs by annexin V/PI staining based flow cytometry analysis (reference value: 6.19%); assay type: functional
NCI-H460 [5] = assay: Inhibition of colony formation in human NCI-H460 cells incubated for 8 days by crystal violet staining based analysis; assay type: functional, cell-based
NCI-H460 [6] = assay: Antiproliferative activity against human NCI-H460 cells expressing vimentin assessed as inhibition of cell growth incubated for 3 days by MTS assay; assay type: functional, cell-based; details: NCI-H460, 72 h
NCI-H1299 [7] = assay: Inhibition of cell migration of human NCI-H1299 cells assessed as reduction in wound distance at 10 uM incubated for 24 hrs by crystal violet staining based microscopic analysis; assay type: functional
NCI-H1299 [8] = assay: Antiproliferative activity against human NCI-H1299 cells assessed as inhibition of cell growth measured for 2 hrs by MTS assay; assay type: functional, cell-based; details: NCI-H1299, 2 h
NCI-H460 [9] = assay: Induction of apoptosis in human NCI-H460 cells assessed as necrotic cells at 20 uM incubated for 12 hrs by annexin V/PI staining based flow cytometry analysis (reference value: 0.20%); assay type: functional
NCI-H460 [10] = assay: Inhibition of colony formation in human NCI-H460 cells at 300 nM incubated for 8 days by crystal violet staining based analysis; assay type: functional, cell-based; details: time 8.0 day
NCI-H1299 [11] = assay: Antimigratory activity against human NCI-H1299 assessed as inhibition of cell migration incubated for 24 hrs by crystal violet staining based microscopic analysis; assay type: functional; details: NCI-H1299, 24 h
NCI-H1299 [12] = assay: Induction of apoptosis in human NCI-H1299 cells assessed as early apoptotic cells at 20 uM incubated for 12 hrs by annexin V/PI staining based flow cytometry analysis (reference value: 0.73%); assay type: functional
NCI-H460 [13] = assay: Inhibition of cell migration of human NCI-H460 cells incubated for 24 hrs by crystal violet staining based microscopic analysis; assay type: functional; details: dose <= 10000.0 nM
NCI-H1299 [14] = assay: Induction of apoptosis in human NCI-H1299 cells assessed as viable cells at 20 uM incubated for 12 hrs by annexin V/PI staining based flow cytometry analysis (reference value: 94.6%); assay type: functional; details: read-out: Activity
Vimentin = Vimentin (Homo sapiens, UniProt P08670); assay: Binding affinity to his-tagged recombinant Vimentin (unknown origin) assessed as dissociation constant by ELISA analysis
NCI-H1299 [15] = assay: Inhibition of cell migration of human NCI-H1299 cells assessed as reduction in wound closure incubated for 24 hrs by crystal violet staining based microscopic analysis; assay type: functional; details: NCI-H1299, 24 h
NCI-H460 [16] = assay: Induction of apoptosis in human NCI-H460 cells assessed as early apoptotic cells at 20 uM incubated for 12 hrs by annexin V/PI staining based flow cytometry analysis (reference value: 0.00%); assay type: functional
NCI-H1299 [17] = assay: Induction of apoptosis in human NCI-H1299 cells assessed as viable cells at 10 uM incubated for 12 hrs by annexin V/PI staining based flow cytometry analysis (reference value: 94.6%); assay type: functional; details: read-out: Activity
NCI-H1299 [18] = assay: Induction of apoptosis in human NCI-H1299 cells assessed as late apoptotic cells at 10 uM incubated for 12 hrs by annexin V/PI staining based flow cytometry analysis (reference value: 2.05%); assay type: functional
NCI-H1299 [19] = assay: Antiproliferative activity against human NCI-H1299 cells assessed as inhibition of cell growth measured for 18 hrs by MTS assay; assay type: functional, cell-based
NCI-H460 [20] = assay: Inhibition of cell migration of human NCI-H460 cells assessed as reduction in wound distance at 10 uM incubated for 24 hrs by crystal violet staining based microscopic analysis; assay type: functional
NCI-H1299 [21] = assay: Antiproliferative activity against human NCI-H1299 cells expressing vimentin assessed as inhibition of cell growth incubated for 3 days by MTS assay; assay type: functional, cell-based; details: NCI-H1299, 72 h
NCI-H1299 [22] = assay: Induction of apoptosis in human NCI-H1299 cells assessed as necrotic cells at 10 uM incubated for 12 hrs by annexin V/PI staining based flow cytometry analysis (reference value: 2.62%); assay type: functional
NCI-H1299 [23] = assay: Inhibition of cell migration of human NCI-H1299 cells incubated for 24 hrs by crystal violet staining based microscopic analysis; assay type: functional; details: dose <= 10000.0 nM
NCI-H1299 [24] = assay: Induction of apoptosis in human NCI-H1299 cells assessed as late apoptotic cells at 20 uM incubated for 12 hrs by annexin V/PI staining based flow cytometry analysis (reference value: 2.05%); assay type: functional
NCI-H460 [25] = assay: Induction of apoptosis in human NCI-H460 cells assessed as viable cells at 20 uM incubated for 12 hrs by annexin V/PI staining based flow cytometry analysis (reference value: 90.9%); assay type: functional; details: read-out: Activity
NCI-H2122 = assay: Antiproliferative activity against human NCI-H2122 cells expressing vimentin assessed as inhibition of cell growth incubated for 3 days by MTS assay; assay type: functional, cell-based; details: NCI-H2122, 72 h
NCI-H460 [26] = assay: Inhibition of cell migration of human NCI-H460 cells assessed as reduction in wound closure incubated for 24 hrs by crystal violet staining based microscopic analysis; assay type: functional; details: NCI-H460, 24 h
NCI-H1299 [27] = assay: Inhibition of colony formation in human NCI-H1299 cells incubated for 8 days by crystal violet staining based analysis; assay type: functional, cell-based
NCI-H460 [28] = assay: Induction of apoptosis in human NCI-H460 cells assessed as early apoptotic cells at 10 uM incubated for 12 hrs by annexin V/PI staining based flow cytometry analysis (reference value: 0.00%); assay type: functional
NCI-H1299 [29] = assay: Induction of apoptosis in human NCI-H1299 cells assessed as early apoptotic cells at 10 uM incubated for 12 hrs by annexin V/PI staining based flow cytometry analysis (reference value: 0.73%); assay type: functional
NCI-H460 [30] = assay: Induction of apoptosis in human NCI-H460 cells assessed as necrotic cells at 10 uM incubated for 12 hrs by annexin V/PI staining based flow cytometry analysis (reference value: 0.20%); assay type: functional

Chain of Vimentin (P08670 whole entry): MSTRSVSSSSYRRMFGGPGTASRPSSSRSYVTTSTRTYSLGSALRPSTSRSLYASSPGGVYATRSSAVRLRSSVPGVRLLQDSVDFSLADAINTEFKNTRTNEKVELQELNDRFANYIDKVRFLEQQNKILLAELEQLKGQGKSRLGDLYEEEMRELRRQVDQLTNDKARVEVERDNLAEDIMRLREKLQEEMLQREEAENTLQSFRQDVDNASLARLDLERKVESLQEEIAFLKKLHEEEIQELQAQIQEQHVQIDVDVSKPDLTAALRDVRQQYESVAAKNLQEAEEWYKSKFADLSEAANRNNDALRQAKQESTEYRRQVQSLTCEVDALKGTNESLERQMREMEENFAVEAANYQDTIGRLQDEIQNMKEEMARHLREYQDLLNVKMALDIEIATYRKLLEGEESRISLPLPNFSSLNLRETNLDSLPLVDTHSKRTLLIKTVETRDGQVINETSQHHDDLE

COCCN(CC(=O)N[C@@H](CCCCN)C(=O)N[C@H](C)C(=O)NCC(=O)NCCCCC(NC(=O)CNC(=O)[C@@H](C)NC(=O)[C@H](CCCCN)NC(=O)CN(CCOC)C(=O)CN(Cc1ccc2c(c1)OCO2)C(=O)CN(CC(C)C)C(=O)CN(CCCCN)C(=O)CN(CCCCN)C(=O)CN(CC(C)C)C(=O)CNc1cccc(C(=O)c2ccccc2)c1)C(N)=O)C(=O)CN(Cc1ccc2c(c1)OCO2)C(=O)CN(CC(C)C)C(=O)CN(CCCCN)C(=O)CN(CCCCN)C(=O)CN(CC(C)C)C(=O)CNc1ccc(C(=O)c2ccccc2)cc1 (some centres not stated)
IC50 (NCI-H358): 12.8 µM | Activity (NCI-H1299 [1]): 1.37% | Activity (NCI-H460 [2]): 15.3% | IC50 (NCI-H2009): 14.3 µM | viability at 10 µM (NCI-H460 [3]): 62.2% | Activity (HBEC3-KT): Non-Toxic | Activity (NCI-H460 [4]): 45.5% | IC50 (NCI-H460 [5]; NCI-H460, 192 h): 0.4 µM | inhibition (NCI-H460 [5]; time 8.0 day): Dose-Dependent Effect | IC50 (NCI-H460 [6]): 8.6 µM | inhibition (NCI-H1299 [7]): Active | IC50 (NCI-H1299 [8]): ~21 µM | Activity (NCI-H460 [9]): 12.8% | inhibition (NCI-H460 [10]): Active | IC50 (NCI-H1299 [11]): ~2 µM | Activity (NCI-H1299 [12]): 0.46% | inhibition (NCI-H460 [13]): Dose-Dependent Effect | viability at 20 µM (NCI-H1299 [14]): 21.3% | Kd (Vimentin): ~0.1 µM | IC50 (NCI-H1299 [15]): 2 µM | Activity (NCI-H460 [16]): 1.09% | viability at 10 µM (NCI-H1299 [17]): 50.5% | Activity (NCI-H1299 [18]): 8.1% | Activity (NCI-H1299 [19]): inactive | inhibition (NCI-H460 [20]): Active | IC50 (NCI-H1299 [21]): 6.7 µM | Activity (NCI-H1299 [22]): 0.98% | inhibition (NCI-H1299 [23]): Dose-Dependent Effect | Activity (NCI-H1299 [24]): 26% | viability at 20 µM (NCI-H460 [25]): 0.06% | IC50 (NCI-H2122): 30.5 µM | IC50 (NCI-H460 [26]): 4 µM | IC50 (NCI-H1299 [27]; NCI-H1299, 192 h): 0.8 µM | inhibition (NCI-H1299 [27]; time 8.0 day): Dose-Dependent Effect | Activity (NCI-H460 [28]): 1.15% | Activity (NCI-H1299 [29]): 0.44% | Activity (NCI-H460 [30]): 1.3%
